Assay [1] relates to D4M.3A syngeneic tumors. Description: D4M.3A syngeneic tumor efficacy study: (S)-mepazine IP ×3, ×7 or QD with anti-PD1 (Example 6). The format is in vivo, C57BL/6 mice. On the procedure:
Male C57BL/6 mice were implanted subcutaneously with D4M.3A syngeneic tumors. The mice were dosed with (S)-mepazine IP and with anti-PD1 mouse clone 29F.1A12 dosed 3 times 200 μg/dose at days 0, 2, and 4 of a treatment cycle. A ×3 arm of mice were dosed at days 0, 1, and 3 of a 21 day treatment cycle with (S)-mepazine IP. A ×7 arm of mice were dosed at days 0-6 of a 21 day treatment cycle with (S)-mepazine IP. A QD arm of mice were dosed daily with (S)-mepazine IP. Tumor volume was measured each day. The results of the study are shown in FIGS. 2 and 3, for ×3 arm and ×7 arm, respectively.

The subject of assay [2] is D4M.3A syngeneic tumors. Kind of assay: D4M.3A syngeneic tumor efficacy study: (S)-mepazine PO 5 days on/5 days off or QD with anti-PD1 (Example 7). It counts as in vivo. The note with it: male C57BL/6 mice; (S)-mepazine PO 5 days on and 5 days off versus each day; with anti-PD1 200 μg at days 0, 2, 4; FIG. 4. How it is done: Male C57BL/6 mice were implanted subcutaneously with D4M.3A syngeneic tumors. The mice were dosed with (S)-mepazine PO and with anti-PD1 mouse clone 29F.1A12 dosed 3 times 200 μg/dose at days 0, 2, and 4 of a treatment cycle. The mice were dosed 5 days on with (S)-mepazine and 5 days off (a dose holiday) (5+5) or each day with (S)-mepazine (QD) PO. Tumor volume was measured each day.

A further assay deals with D4M.3A melanoma cells. Description: D4M.3A melanoma in mice: interval versus continuous mepazine with anti-PD-1 (Example 1). It counts as in vivo. The conditions noted are these: female C57BL/6 mice; mepazine 16 mg/kg i.p. daily on days 7-10 only versus continuously to day 19; with anti-PD-1 mAb 200 μg i.p. daily; FIG. 1. On the procedure:
Female C57BL/6 mice were implanted subcutaneously with 10^6 D4M.3A melanoma cells. Starting 7 days later (arrow), animals were treated with daily i.p. injections of 200 μg of anti-PD-1 mAbs (clone 29F.1A12) or isotype control mAb (rat IgG2a). Some animals in addition received daily i.p. injections of 16 mg/kg bodyweight of the allosteric MALT-1 inhibitor mepazine, either for the first 4 days (days 7-10) only, or continuously until the end of the experiment on day 19. Tumor size was measured using a caliper every 2-3 days. n=4/group. *=p<0.05 versus Ctrl.

With `CN1CCC[C@H](CN2c3ccccc3Sc3ccccc32)C1` [(S)-mepazine], the “Tumor control of ×3 and ×7 arms versus QD dosing arm” value with D4M.3A syngeneic tumors [1] ((S)-mepazine IP with anti-PD1, up to 7 days after (S)-mepazine was dosed) is “comparable to the QD dosing arm”. Moreover, in the assay on D4M.3A syngeneic tumors [1] (male C57BL/6 mice, (S)-mepazine IP on days 0, 1 and 3 of 21 day cycle, with anti-PD1 200 μg at days 0, 2, 4, FIG. 2), the “Tumor volume, activity against the tumor compared to anti-PD1 alone, ×3 arm” value is “improved activity against the tumor compared to anti-PD1 alone”. In addition, in the assay with D4M.3A syngeneic tumors [1] (male C57BL/6 mice, (S)-mepazine IP on days 0-6 of 21 day cycle, with anti-PD1 200 μg at days 0, 2, 4, FIG. 3), the “Tumor volume, activity against the tumor compared to anti-PD1 alone, ×7 arm” value is given as “improved activity against the tumor compared to anti-PD1 alone”. Moreover, in the assay with D4M.3A syngeneic tumors [1] (×3 and ×7 arms, (S)-mepazine IP with anti-PD1, male C57BL/6 mice), the “Duration of efficacy for tumor control after (S)-mepazine was dosed” value was “up to 7 days”. Also, the “Tumor volume, 5+5 dosing versus QD dosing” value in the assay on D4M.3A syngeneic tumors [2] is on record as “equivalent to a QD dosing schedule”.
On to `CN1CCCC(CN2c3ccccc3Sc3ccccc32)C1` (racemic) [mepazine], for which the “Tumor size, interval versus continuous treatment” value in the assay on D4M.3A melanoma cells is on record as “at least as effective as continuous treatment”.

The values above are taken from US20230235077A1, “MATERIALS AND METHODS OF TREATING CANCER” (THE GENERAL HOSPITAL CORPORATION, priority 2020, published 2023).
